Laboratory results published in patent publication US6699834B1, “Method for treating cancer” (University of Maryland Biotechnology Institute, priority 1997, dated 2004).
Bridge positions count the residues as written; N and C are the ends. Ends that are not written are not given here.

Legend:
[1] = test system: HIV RNA and protein expression; experiment: HIV RNA and protein expression in HIV-1 transgenic mice; type: in vivo
Text: (§1) The HIV-1 transgenic mice used for this study contain 7.4 kb of foreign DNA, including 5.1 kb of the HIV-1 proviral genome deleted in the gag and pol genes and 2.3 kb of vector (Dickie et al., 1991, Virology 185:109-119). […] In addition, these mice develop severe hyperkeratotic skin lesions with marked expression of gp 120 and nef genes (Kopp et al., 1993, AIDS Res. Hum. Retroviruses 9:267-275; Vasli et al., 1994, AIDS Res. Hum. Retroviruses 10:1241-1250).
Heterozygous transgenic mothers were treated with the hCG preparation subcutaneously twice weekly. Pups received hCG via the mother's milk.
Gene expression was assayed in total RNA extracted from the skin of Tg26 mice with RNAzol. One microgram of RNA was reverse transcribed into cDNA using random hexamer primers and […] reverse transcriptase (Life Technologies, MD) in a final volume of 30 μl. One tenth of the cDNA reactions were used for PCR amplification of various HIV gene sequences (env, tat, rev, nef and vif). In addition, glyceraldehyde 3-phosphate dehydrogenase (GAPHD) mRNA was amplified for each sample for normalization. Following 25 cycles of amplification, 10% of the PCR product was resolved by electrophoresis through 2% agarose gels and processed for Southern hybridization using FITC-labeled oligonucleotide probes complimentary to internal sequences of the amplicons. Detection was performed by chemiluminescence (Amersham) and relative mRNA levels determined by densitometry after normalization with GAPDH mRNA levels.
(§2) Finally, certain fractions were tested for their ability to increase survival, promote weight gain and reduce HIV-1 gene expression in HIV-1 transgenic mice as described herein.

KS Y-1 and KS-SLK cells = experiment: Kaposi's Sarcoma clonogenic assay in cultured cells; type: cell-based, human; settings: for inhibition of KS cell growth in clonogenic assays (in words): KS Y-1 and KS SLK
In short: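 KS Y-1 or KS-SLK cells, 5×10^4 seeded in 0.8% methylcellulose, grown 10 days with or without hCG, β-hCG or β-hCG peptide preparations; well-formed colonies counted in triplicate wells.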

[2] = test system: hematopoietic progenitor cells; experiment: Hematopoietic progenitor clonogenic assays (CFU-GEMM, BFU-e, CFU-GM); type: cell-based, human
In short: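 Normal bone marrow and cord blood progenitors (2×10^5 cells/ml) grown in methylcellulose with hCG preparations at 200 IU/ml or α/β-subunits and peptides at 100 μg/ml. Colonies (aggregates >50 cells) counted after 10 days of culture.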

breast cancer cells = experiment: Clonogenic assay, breast cancer cells; type: cell-based; settings: 100 ug/ml
Description: The hCG preparations, fractions of the early pregnancy urine and hCG APL™ SUPERDEX™ 200 fractionations (described herein), and certain β-hCG peptides were tested on prostate, lung, breast, and kidney cancer cells in vitro, and on prostate tumors in nude mice. […] The preparations fractions and peptides were also assayed using a clonogenic assay in which cells were seeded in methylcellulose in the presence or absence of test substance and then colonies were counted after a certain period of time. Cells were also examined for apoptosis by confocal microscopy.
The hCG preparation, hCG fractions and β-hCG peptides were also tested for the inhibition of breast cancer cell colony formation in the clonogenic assay.

HIV-1 transgenic mice = experiment: Survival, growth and weight of HIV-1 transgenic mouse pups; type: in vivo
Description: as §1, §2
HIV-I transgenic pups administered hCG and hCG-related preparations for the first 5 days after birth through the mothers milk were monitored for survival at 10 days after birth.

[3] = listed as cyclized β-hCG peptide of amino acids 44-57

Substance: 4. Circ 44-57: β-hCG 44-57 with cysteine substituted at position 44, circularized via disulfide bond (SEQ ID NO:26) (CLQGVLPALPQVVC; disulfide 1-14 (inferred))
- inhibition of HIV RNA and protein expression ([1]; inhibition of HIV RNA and protein expression in HIV-1 transgenic mice): +++ (“+++” represents greater than 70% effect)
- HIV-1 gene / protein expression in transgenic mice (in words) ([1]; pups dosed via mother's milk): considerable inhibition
- inhibition of KS cell growth in clonogenic assays (in words) (KS Y-1 and KS-SLK cells; listed as cyclic 44-57): strongest anti-tumor effects
- inhibition of KS cell growth in clonogenic assays (in words) (KS Y-1 and KS-SLK cells; [3]): inhibited KS cell growth
- KS in vitro (KS Y-1 and KS-SLK cells; inhibition of Kaposi's Sarcoma cell growth in vitro in cultured cells): +++ (“+++” represents greater than 70% effect)
- promotion of hematopoiesis (in words) ([2]; listed as circularized 44-57): directly promoted
- promotion of hematopoiesis (in words) [2, 3]: pro-hematopoietic activity
- Pro-hematopoiesis in vitro Enhancement ([2]; relative increase of hematopoietic colony cell number, hCG preparations 200 IU/ml, subunits and peptides 100 μg/ml): +++ (“+++” represents greater than 70% effect)
- % inhibition (colony formation) (breast cancer cells): 45%
- weight gain / growth retardation and cachexia (HIV-1 transgenic mice; HIV-1 transgenic pups): higher weight gain than untreated mice
- survival at 10 days after birth (HIV-1 transgenic mice; administered first 5 days after birth through mothers milk): promote survival
